Measured values from PMC5053573, “Structure-Based Design of Tetrahydroisoquinoline-7-carboxamides as Selective Discoidin Domain Receptor 1 (DDR1) Inhibitors” (Journal of Medicinal Chemistry, 2016).

Experiments:
TRKB = target: T1, TRKB (Homo sapiens, UniProt Q16620); test: KINOMEscan binding constant, TRKB; settings: read-out: Binding affinity (Kd, nM) TRKB
T1 construct: purchased DiscoveRx

DDR2 = target: T2, DDR2 (Homo sapiens, UniProt Q16832); test: LANCE ULTRA kinase assay, DDR2; assay type: biochemical
T2 sequence (Q16832 22-855): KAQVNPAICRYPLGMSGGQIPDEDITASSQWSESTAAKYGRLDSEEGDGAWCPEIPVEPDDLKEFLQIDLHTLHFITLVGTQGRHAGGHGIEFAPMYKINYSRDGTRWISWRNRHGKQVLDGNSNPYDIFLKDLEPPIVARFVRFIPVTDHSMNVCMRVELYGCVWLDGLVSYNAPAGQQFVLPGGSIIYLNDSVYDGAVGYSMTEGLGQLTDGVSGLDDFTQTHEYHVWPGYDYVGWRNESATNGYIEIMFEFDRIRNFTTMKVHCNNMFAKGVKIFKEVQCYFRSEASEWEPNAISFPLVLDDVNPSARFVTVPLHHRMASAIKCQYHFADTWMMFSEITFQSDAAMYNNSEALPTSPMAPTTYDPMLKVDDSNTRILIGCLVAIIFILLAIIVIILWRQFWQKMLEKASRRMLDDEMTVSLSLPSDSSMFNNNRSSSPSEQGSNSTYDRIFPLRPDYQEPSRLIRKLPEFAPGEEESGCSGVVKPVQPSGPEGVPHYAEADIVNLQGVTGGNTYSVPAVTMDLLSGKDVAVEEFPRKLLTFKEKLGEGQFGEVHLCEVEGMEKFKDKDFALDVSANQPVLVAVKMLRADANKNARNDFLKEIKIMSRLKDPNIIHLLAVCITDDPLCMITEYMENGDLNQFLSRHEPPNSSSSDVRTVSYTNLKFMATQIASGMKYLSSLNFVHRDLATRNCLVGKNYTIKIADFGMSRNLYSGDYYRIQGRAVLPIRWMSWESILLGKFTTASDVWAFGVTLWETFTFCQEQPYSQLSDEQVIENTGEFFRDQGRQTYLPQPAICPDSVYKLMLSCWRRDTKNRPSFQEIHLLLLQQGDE

DDR1 = DDR1 (Homo sapiens, UniProt Q08345)
Chain of DDR1 (Q08345 19-913): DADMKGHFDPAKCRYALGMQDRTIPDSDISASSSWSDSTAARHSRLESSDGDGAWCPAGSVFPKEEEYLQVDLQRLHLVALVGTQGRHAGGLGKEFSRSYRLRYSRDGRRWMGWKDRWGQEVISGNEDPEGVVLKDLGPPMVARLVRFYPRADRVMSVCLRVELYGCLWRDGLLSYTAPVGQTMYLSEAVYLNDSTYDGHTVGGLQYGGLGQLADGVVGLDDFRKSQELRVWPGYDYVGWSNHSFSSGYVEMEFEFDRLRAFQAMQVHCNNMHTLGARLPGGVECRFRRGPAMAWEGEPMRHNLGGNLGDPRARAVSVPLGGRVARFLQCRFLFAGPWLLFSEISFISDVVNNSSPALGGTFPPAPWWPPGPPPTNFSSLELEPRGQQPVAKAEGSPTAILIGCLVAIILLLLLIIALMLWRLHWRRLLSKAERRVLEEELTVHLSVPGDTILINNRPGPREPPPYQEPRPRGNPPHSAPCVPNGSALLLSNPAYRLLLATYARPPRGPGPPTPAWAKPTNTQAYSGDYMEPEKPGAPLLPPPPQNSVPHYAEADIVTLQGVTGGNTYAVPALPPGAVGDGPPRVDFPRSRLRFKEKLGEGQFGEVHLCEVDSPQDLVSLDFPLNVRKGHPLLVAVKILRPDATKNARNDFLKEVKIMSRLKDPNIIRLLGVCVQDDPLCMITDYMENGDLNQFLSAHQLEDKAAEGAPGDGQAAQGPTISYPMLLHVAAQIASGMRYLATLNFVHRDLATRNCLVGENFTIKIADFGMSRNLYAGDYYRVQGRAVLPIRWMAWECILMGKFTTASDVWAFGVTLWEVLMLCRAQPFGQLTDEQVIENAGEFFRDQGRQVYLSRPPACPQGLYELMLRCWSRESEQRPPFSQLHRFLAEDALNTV

T1 sequence (Q16620 32-822): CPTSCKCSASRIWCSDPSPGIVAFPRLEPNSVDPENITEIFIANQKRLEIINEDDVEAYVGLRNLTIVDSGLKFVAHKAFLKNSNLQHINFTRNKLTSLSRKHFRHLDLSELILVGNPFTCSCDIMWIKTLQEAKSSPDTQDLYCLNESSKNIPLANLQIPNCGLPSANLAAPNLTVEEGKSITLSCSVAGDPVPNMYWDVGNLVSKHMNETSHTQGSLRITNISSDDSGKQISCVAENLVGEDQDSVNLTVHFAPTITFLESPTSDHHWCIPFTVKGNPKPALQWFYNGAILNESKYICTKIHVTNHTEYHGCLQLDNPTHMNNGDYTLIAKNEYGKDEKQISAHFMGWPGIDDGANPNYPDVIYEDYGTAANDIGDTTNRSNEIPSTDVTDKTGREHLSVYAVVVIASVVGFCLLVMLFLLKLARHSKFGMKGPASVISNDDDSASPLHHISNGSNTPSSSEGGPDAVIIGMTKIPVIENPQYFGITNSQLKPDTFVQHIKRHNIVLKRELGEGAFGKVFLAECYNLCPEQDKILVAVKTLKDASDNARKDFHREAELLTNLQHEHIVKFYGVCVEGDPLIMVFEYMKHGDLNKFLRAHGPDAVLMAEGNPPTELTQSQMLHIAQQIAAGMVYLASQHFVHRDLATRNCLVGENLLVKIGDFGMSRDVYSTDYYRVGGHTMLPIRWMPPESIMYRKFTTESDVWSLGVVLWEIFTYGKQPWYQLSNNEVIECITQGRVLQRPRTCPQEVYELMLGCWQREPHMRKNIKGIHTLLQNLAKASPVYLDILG

Row | SMILES | Kd (TRKB) [nM] | IC50 (DDR2) [nM] | DDR1 inhibition, result in words (DDR1)
1 | C[C@@H]1CN(c2cncnc2)Cc2cc(C(=O)Nc3cc(CN4CCN(C)CC4)cc(C(F)(F)F)c3)ccc21 [Compound 6c] | 36 ± 2.5 | – | –
2 | C[C@H]1CN(c2cncnc2)Cc2cc(C(=O)Nc3cc(CN4CCN(C)CC4)cc(C(F)(F)F)c3)ccc21 [Compound 6b] | 5.2 ± 1 | – | –
3 | CC(C)[C@H]1CN(c2cncnc2)Cc2cc(C(=O)Nc3cc(CN4CCN(C)CC4)cc(C(F)(F)F)c3)ccc21 [Compound 6f] | 340 ± 5 | > 10000 | substantial potency loss
4 | CC[C@@H]1CN(c2cncnc2)Cc2cc(C(=O)Nc3cc(CN4CCN(C)CC4)cc(C(F)(F)F)c3)ccc21 [Compound 6e] | 500 ± 30 | > 10000 | –
5 | CN1CCN(Cc2cc(NC(=O)c3ccc4c(c3)CN(c3ccccc3)CC4)cc(C(F)(F)F)c2)CC1 [Compound 6i] | > 1000 | > 10000 | totally abolished DDR1 inhibitory potency
6 | CN1CCN(Cc2cc(NC(=O)c3ccc4c(c3)CN(c3cncnc3)CC4)cc(C(F)(F)F)c2)CC1 [Compound 6a] | 29 ± 5.5 | > 7900 | –
7 | CC[C@H]1CN(c2cncnc2)Cc2cc(C(=O)Nc3cc(CN4CCN(C)CC4)cc(C(F)(F)F)c3)ccc21 [Compound 6d] | 22 ± 1 | 546 ± 49 | –

Further lines, results first:

Row | Kd (TRKB) [nM] | IC50 (DDR2) [nM] | DDR1 inhibition, result in words (DDR1) | SMILES
8 | 94 ± 6 | > 4000 | – | CN1CCN(Cc2cc(NC(=O)c3ccc4c(c3)CN(c3cccnc3)CC4)cc(C(F)(F)F)c2)CC1 [Compound 6h]
9 | > 1000 | > 10000 | almost no DDR1 inhibition | CC(C)[C@@H]1CN(c2cncnc2)Cc2cc(C(=O)Nc3cc(CN4CCN(C)CC4)cc(C(F)(F)F)c3)ccc21 [Compound 6g]
